From paper PMC4730251, “Cloning, Characterization and Expression Pattern Analysis of a Cytosolic Copper/Zinc Superoxide Dismutase (SaCSD1) in a Highly Salt Tolerant Mangrove (Sonneratia alba)” (International Journal of Molecular Sciences, 2015)

Molecular target: T1, SaCSD1 (Sonneratia alba, UniProt A0A0U1X631)
T1 construct: gene SOD1
T1 sequence (A0A0U1X631 1-152): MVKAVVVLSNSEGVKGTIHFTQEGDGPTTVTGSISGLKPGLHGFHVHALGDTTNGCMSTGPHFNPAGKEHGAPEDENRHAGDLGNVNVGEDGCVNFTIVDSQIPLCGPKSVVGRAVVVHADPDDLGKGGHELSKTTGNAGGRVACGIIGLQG
Experiment: SOD activity assay kit (WST-1 method)
Assay type: biochemical

## [O]O [superoxide]
  SOD activity assay kit (WST-1 method): Superoxide dismutase activity assay kit (WST-1 method) was used to detect the SOD activity
